Results taken from patent publication US8648081B2 (Eli Lilly and Company, priority 2011, dated 2014).

What follows are compounds tested on Lone star tick larvae (Amblyomma americanum) (assay: In Vitro Larval Immersion Microassay (LIM)). Settings: read-out: % Efficacy (percent larval mortality).

Structure (SMILES) | mortality at 300 µM [%]
FC(F)(F)C1(c2cc(Cl)cc(Cl)c2)CC(c2cc3cc(Cl)ccc3s2)=NO1 (stereo not drawn) [Example 237, 3-(5-chlorobenzo [b]thiophen-2-yl)-5-(3,5-dichloro-phenyl)-5-(trifluoro-methyl)-4,5-dihydroisoxazole] | ≥ 80
O=C(CNC(=O)c1cnc2sc(C3=NOC(c4cc(Cl)cc(Cl)c4)(C(F)(F)F)C3)cc2c1)NCC(F)(F)F (stereo not drawn) [Example 240, 2-(5-(3,5-dichlorophenyl)-5-(trifluoromethyl)-4,5-dihydroisoxazol-3-yl)-N-(2-oxo-2-(2,2,2-trifluoroethylamino)ethyl)thieno[2,3-b]pyridine-5-carboxamide] | ≥ 80
O=C(N[C@@H]1CCNC1=O)c1cnc2sc(C3=NOC(c4cc(Cl)cc(Cl)c4)(C(F)(F)F)C3)cc2c1 (stereo partly drawn) [Example 241, 2-(5-(3,5-dichloro-phenyl)-5-(trifluoro-methyl)-4,5-dihydro-isoxazol-3-yl)-N-((R)-2-oxopyrrolidin-3-yl)thieno[2,3-b] pyridine-5-carboxamide] | ≥ 80
O=C(CNC(=O)c1sc(C2=NO[C@@](c3cc(Cl)c(F)c(Cl)c3)(C(F)(F)F)C2)c2c1CCC2)NCC(F)(F)F [Example 243, (S)-3-(5-(3,5-dichloro-4-fluorophenyl)-5-(trifluoromethyl)-4,5-dihydroisoxazol-3-yl)-N-(2-oxo-2-(2,2,2-trifluoroethylamino)ethyl)-5,6-dihydro-4H-cyclopenta[c]thiophene-1-carboxamide] | ≥ 80
O=C(CNC(=O)c1sc(C2=NOC(c3cc(Cl)c(F)c(Cl)c3)(C(F)(F)F)C2)c2c1CCC2)NCC(F)F (stereo not drawn) [Example 244, 3-[5-(3,5-dichloro-4-fluoro-phenyl)-5-trifluoromethyl-4,5-dihydro-isoxazol-3-yl]-5,6-dihydro-4H-cyclopenta[c]thiophene-1-carboxylic acid [(2,2-difluoro-ethylcarbamoyl)-methyl]-amide] | ≥ 80
O=C(CNC(=O)c1sc(C2=NO[C@@](c3cc(Cl)c(F)c(Cl)c3)(C(F)(F)F)C2)c2c1CCC2)NCC(F)F [Example 245, (S)-3-[5-(3,5-dichloro-4-fluoro-phenyl)-5-trifluoromethyl-4,5-dihydro-isoxazol-3-yl]-5,6-dihydro-4H-cyclopenta[c]thiophene-1-carboxylic acid [(2,2-difluoro-ethylcarbamoyl)-methyl]-amide] | ≥ 80
O=C(CNC(=O)c1sc(C2=NOC(c3cc(Cl)c(F)c(Cl)c3)(C(F)(F)F)C2)c2c1CCC2)NCCF (stereo not drawn) [Example 246, 3-[5-(3,5-Dichloro-4-fluoro-phenyl)-5-trifluoromethyl-4,5-dihydro-isoxazol-3-yl]-5,6-dihydro-4H-cyclopenta[c]thiophene-1-carboxylic acid [(2-fluoro-ethylcarbamoyl)-methyl]-amide] | ≥ 80
O=C(CNC(=O)c1sc(C2=NO[C@@](c3cc(Cl)c(F)c(Cl)c3)(C(F)(F)F)C2)c2c1CCC2)NCCF [Example 247, (S)-3-[5-(3,5-Dichloro-4-fluoro-phenyl)-5-trifluoromethyl-4,5-dihydro-isoxazol-3-yl]-5,6-dihydro-4H-cyclopenta[c]thiophene-1-carboxylic acid [(2-fluoro-ethylcarbamoyl)-methyl]-amide] | ≥ 80
C#CCNC(=O)CNC(=O)c1sc(C2=NO[C@@](c3cc(Cl)c(F)c(Cl)c3)(C(F)(F)F)C2)c2c1CCC2 [Example 249, (S)-3-(5-(3,5-dichloro-4-fluorophenyl)-5-(trifluoromethyl)-4,5-dihydroisoxazol-3-yl)-N-(2-oxo-2-(prop-2-ynylamino)ethyl)-5,6-dihydro-4H-cyclopenta[c]thiophene-1-carboxamide] | ≥ 80
